Measurements: PubChem BioAssay AID1919002 (Molecular Pharmacology Branch, DTP, NCI, 2023)
Several values for one entry are separate records, joined by “and”; a condition that tells them apart may be missing. Equal values may be shown once.

System: 743489-274-T-PDC complex spheroid growth
Assay: Anticancer human tumor 743489-274-T-PDC patient-derived renal cell carcinoma cell line growth inhibition [AhR]
Details: for viability, T/C: stronger effect = lower value; active = viability on the fitted dose curve at most 10% of control; inactive = the rest
Procedure, shortened: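 Agents were dosed in half-log steps down from roughly clinical Cmax, or from 10 microM where Cmax was unknown, alone and with AhR antagonists. Read-out: percent test/control growth of tumor spheroids containing HUVEC and MSC stromal cells.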

[1] = curve of first compound, second compound 0.1 µM
[2] = curve of first compound, second compound 0.316 µM
[3] = curve of first compound, second compound 1 µM
[4] = curve of first compound, second compound 3.16 µM
[5] = curve of first compound, second compound 10 µM
[6] = second compound 0.1 µM, first compound 0.00316 µM
[7] = second compound 0.1 µM, first compound 0.01 µM
[8] = second compound 0.1 µM, first compound 0.0316 µM
[9] = second compound 0.1 µM, first compound 0.1 µM
[10] = second compound 0.1 µM, first compound 0.316 µM
[11] = second compound 0.1 µM, first compound 1 µM
[12] = second compound 0.316 µM, first compound 0.00316 µM
[13] = second compound 0.316 µM, first compound 0.01 µM
[14] = second compound 0.316 µM, first compound 0.0316 µM
[15] = second compound 0.316 µM, first compound 0.1 µM
[16] = second compound 0.316 µM, first compound 0.316 µM
[17] = second compound 0.316 µM, first compound 1 µM
[18] = second compound 1 µM, first compound 0.00316 µM
[19] = second compound 1 µM, first compound 0.01 µM
[20] = second compound 1 µM, first compound 0.0316 µM
[21] = second compound 1 µM, first compound 0.1 µM
[22] = second compound 1 µM, first compound 0.316 µM
[23] = second compound 1 µM, first compound 1 µM
[24] = second compound 3.16 µM, first compound 0.00316 µM
[25] = second compound 3.16 µM, first compound 0.01 µM
[26] = second compound 3.16 µM, first compound 0.0316 µM
[27] = second compound 3.16 µM, first compound 0.1 µM
[28] = second compound 3.16 µM, first compound 0.316 µM
[29] = second compound 3.16 µM, first compound 1 µM
[30] = second compound 10 µM, first compound 0.00316 µM
[31] = second compound 10 µM, first compound 0.01 µM
[32] = second compound 10 µM, first compound 0.0316 µM
[33] = second compound 10 µM, first compound 0.1 µM
[34] = second compound 10 µM, first compound 0.316 µM
[35] = second compound 10 µM, first compound 1 µM
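Also: spheroids exposed to agents for 7 days before readout.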
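For viability, T/C in this document: 100% = DMSO vehicle control wells.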

Nc1ncn(C2CC(O)C(CO)O2)c(=O)n1 (configuration not stated) + Cc1ccccc1N=Nc1ccc(NC(=O)c2ccnn2C)c(C)c1
> 1000 nM: IC50 [1] | IC50 [2] | IC50 [3] | IC50 [4] | IC50 [5]
inactive: viability, T/C [6] 86.2% | viability, T/C [7] 91.2% | viability, T/C [8] 88.6% | viability, T/C [9] 92.5% | viability, T/C [10] 103% | viability, T/C [11] 87.1% | viability, T/C [12] 107% | viability, T/C [13] 89.2% | viability, T/C [14] 89.8% | viability, T/C [15] 87.2% | viability, T/C [16] 87.8% | viability, T/C [17] 84.7% | viability, T/C [18] 89.7% | viability, T/C [19] 99.1% | viability, T/C [20] 101% | viability, T/C [21] 79.8% | viability, T/C [22] 101% | viability, T/C [23] 87.9% | viability, T/C [24] 94.8% | viability, T/C [25] 81.7% | viability, T/C [26] 83.9% | viability, T/C [27] 74.8% | viability, T/C [28] 88.9% | viability, T/C [29] 82.8% | viability, T/C [30] 92.7% | viability, T/C [31] 88% | viability, T/C [32] 90% | viability, T/C [33] 96.2% | viability, T/C [34] 80.1% | viability, T/C [35] 82.8%

Nc1ncn(C2CC(O)C(CO)O2)c(=O)n1 (configuration not stated) + CC(CO)NC(=O)c1cc(-c2ccc(Cl)cc2)nn(-c2cnn(C)c2)c1=O
inactive: viability, T/C [6] 88.6% | viability, T/C [7] 93.4% | viability, T/C [8] 98.4% | viability, T/C [9] 87.5% | viability, T/C [10] 99.4% | viability, T/C [11] 91.4% | viability, T/C [12] 80.4% | viability, T/C [13] 89.9% | viability, T/C [14] 91% | viability, T/C [15] 98% | viability, T/C [16] 84.5% | viability, T/C [17] 85.3% | viability, T/C [18] 94.8% | viability, T/C [19] 93.2% | viability, T/C [20] 89.9% | viability, T/C [21] 94.7% | viability, T/C [22] 101% | viability, T/C [23] 88.6% | viability, T/C [24] 95.2% | viability, T/C [25] 85.2% | viability, T/C [26] 96% | viability, T/C [27] 92.3% | viability, T/C [28] 85% | viability, T/C [29] 84.3% | viability, T/C [30] 88.2% | viability, T/C [31] 96% | viability, T/C [32] 88.7% | viability, T/C [33] 93.9% | viability, T/C [34] 82.9% | viability, T/C [35] 107%
> 1000 nM: IC50 [1] | IC50 [2] | IC50 [3] | IC50 [4] | IC50 [5]

Cn1ncnc1C1c2n[nH]c(=O)c3cc(F)cc(c23)NC1c1ccc(F)cc1 (configuration not stated) + Cc1ccccc1N=Nc1ccc(NC(=O)c2ccnn2C)c(C)c1
inactive: viability, T/C (second compound 0.1 µM, first compound 0.000316 µM) 97.3% | viability, T/C (second compound 0.1 µM, first compound 0.001 µM) 106% | viability, T/C [6] 101% | viability, T/C [7] 101% | viability, T/C [8] 103% | viability, T/C [9] 90.2% | viability, T/C (second compound 0.316 µM, first compound 0.000316 µM) 98.2% | viability, T/C (second compound 0.316 µM, first compound 0.001 µM) 107% | viability, T/C [12] 89% | viability, T/C [13] 98.9% | viability, T/C [14] 97.8% | viability, T/C [15] 88.8% | viability, T/C (second compound 1 µM, first compound 0.000316 µM) 105% | viability, T/C (second compound 1 µM, first compound 0.001 µM) 92.1% | viability, T/C [18] 100% | viability, T/C [19] 96.7% | viability, T/C [20] 106% | viability, T/C [21] 92.5% | viability, T/C (second compound 3.16 µM, first compound 0.000316 µM) 93.3% | viability, T/C (second compound 3.16 µM, first compound 0.001 µM) 106% | viability, T/C [24] 97.7% | viability, T/C [25] 91% | viability, T/C [26] 94.1% | viability, T/C [27] 102% | viability, T/C (second compound 10 µM, first compound 0.000316 µM) 99.8% | viability, T/C (second compound 10 µM, first compound 0.001 µM) 101% | viability, T/C [30] 103% | viability, T/C [31] 92.2% | viability, T/C [32] 89.4% | viability, T/C [33] 103%
> 100 nM: IC50 [1] | IC50 [2] | IC50 [3] | IC50 [4] | IC50 [5]

O=C(C=Cn1cnc(-c2cc(C(F)(F)F)cc(C(F)(F)F)c2)n1)NNc1cnccn1 + Cc1cncc(-c2nc(NCCc3c[nH]c4ccccc34)c3ncn(C(C)C)c3n2)c1
> 3000 nM: IC50 [1] | IC50 [2] | IC50 [3] | IC50 [4] | IC50 [5]
inactive: viability, T/C (second compound 0.1 µM, first compound 0.00949 µM) 103% | viability, T/C (second compound 0.1 µM, first compound 0.03 µM) 95.6% | viability, T/C (second compound 0.1 µM, first compound 0.0949 µM) 112% | viability, T/C (second compound 0.1 µM, first compound 0.3 µM) 122% | viability, T/C (second compound 0.1 µM, first compound 0.949 µM) 124% | viability, T/C (second compound 0.1 µM, first compound 3 µM) 96.5% | viability, T/C (second compound 0.316 µM, first compound 0.00949 µM) 96.2% | viability, T/C (second compound 0.316 µM, first compound 0.03 µM) 92.5% | viability, T/C (second compound 0.316 µM, first compound 0.0949 µM) 97.5% | viability, T/C (second compound 0.316 µM, first compound 0.3 µM) 107% | viability, T/C (second compound 0.316 µM, first compound 0.949 µM) 106% | viability, T/C (second compound 0.316 µM, first compound 3 µM) 83.7% | viability, T/C (second compound 1 µM, first compound 0.00949 µM) 94.5% | viability, T/C (second compound 1 µM, first compound 0.03 µM) 102% | viability, T/C (second compound 1 µM, first compound 0.0949 µM) 98.7% | viability, T/C (second compound 1 µM, first compound 0.3 µM) 105% | viability, T/C (second compound 1 µM, first compound 0.949 µM) 108% | viability, T/C (second compound 1 µM, first compound 3 µM) 104% | viability, T/C (second compound 3.16 µM, first compound 0.00949 µM) 111% | viability, T/C (second compound 3.16 µM, first compound 0.03 µM) 101% | viability, T/C (second compound 3.16 µM, first compound 0.0949 µM) 102% | viability, T/C (second compound 3.16 µM, first compound 0.3 µM) 117% | viability, T/C (second compound 3.16 µM, first compound 0.949 µM) 103% | viability, T/C (second compound 3.16 µM, first compound 3 µM) 96.2% | viability, T/C (second compound 10 µM, first compound 0.00949 µM) 80.4% | viability, T/C (second compound 10 µM, first compound 0.03 µM) 80.2% | viability, T/C (second compound 10 µM, first compound 0.0949 µM) 84.4% | viability, T/C (second compound 10 µM, first compound 0.3 µM) 102% | viability, T/C (second compound 10 µM, first compound 0.949 µM) 102% | viability, T/C (second compound 10 µM, first compound 3 µM) 101%

CCc1c2c(nc3ccc(O)cc13)-c1cc3c(c(=O)n1C2)COC(=O)[C@]3(O)CC
inactive: viability, T/C (compound 0.000949 µM) 105% and 85% and 104% | viability, T/C (compound 0.003 µM) 105% and 102% and 103% | viability, T/C (compound 0.00949 µM) 102% and 85.4% and 107% | viability, T/C (compound 0.03 µM) 83% and 70.5% and 95.8% | viability, T/C (compound 0.0949 µM) 77.1% and 65.4% and 83.9% | viability, T/C (compound 0.3 µM) 68.5% and 50.5% and 59.9%
> 300 nM: IC50 (curve of compound)

CC1(C)CCC(CN2CCN(c3ccc(C(=O)NS(=O)(=O)c4ccc(NCC5CCOCC5)c([N+](=O)[O-])c4)c(Oc4cnc5[nH]ccc5c4)c3)CC2)=C(c2ccc(Cl)cc2)C1 + CC(CO)NC(=O)c1cc(-c2ccc(Cl)cc2)nn(-c2cnn(C)c2)c1=O
inactive: viability, T/C [8] 96.8% | viability, T/C [9] 97.4% | viability, T/C [10] 90.6% | viability, T/C [11] 93.7% | viability, T/C (second compound 0.1 µM, first compound 3.16 µM) 106% | viability, T/C (second compound 0.1 µM, first compound 10 µM) 96.3% | viability, T/C [14] 110% | viability, T/C [15] 95% | viability, T/C [16] 93.1% | viability, T/C [17] 89% | viability, T/C (second compound 0.316 µM, first compound 3.16 µM) 90.3% | viability, T/C (second compound 0.316 µM, first compound 10 µM) 94.8% | viability, T/C [20] 92% | viability, T/C [21] 88.3% | viability, T/C [22] 98.1% | viability, T/C [23] 86% | viability, T/C (second compound 1 µM, first compound 3.16 µM) 91.9% | viability, T/C (second compound 1 µM, first compound 10 µM) 95.8% | viability, T/C [26] 89.8% | viability, T/C [27] 96.3% | viability, T/C [28] 107% | viability, T/C [29] 95.7% | viability, T/C (second compound 3.16 µM, first compound 3.16 µM) 98.9% | viability, T/C (second compound 3.16 µM, first compound 10 µM) 93.6% | viability, T/C [32] 95.4% | viability, T/C [33] 112% | viability, T/C [34] 93.1% | viability, T/C [35] 93.9% | viability, T/C (second compound 10 µM, first compound 3.16 µM) 95% | viability, T/C (second compound 10 µM, first compound 10 µM) 104%
> 10000 nM: IC50 [1] | IC50 [2] | IC50 [3] | IC50 [4] | IC50 [5]
